Results as given in ChEMBL document CHEMBL4390649, “Fine-tuning the neuroprotective and blood-brain barrier permeability profile of multi-target agents designed to prevent progressive mitochondrial dysfunction” (Eur J Med Chem, 2019).
Active and inactive are the calls of the source. The calls are words filed in the database; no cut-off is given here.

Key:
[1] = tested on: SH-SY5Y; experiment: Induction of ROS generation in human SH-SY5Y cells at 50 uM incubated for 24 hrs by DCFH-DA probe based fluorescence assay relative to control; format: functional
[2] = tested on: SH-SY5Y; experiment: Neuroprotective activity against TBHP-induced oxidative damage in human SH-SY5Y cells assessed as increase in cell viability at 50 uM pretreated for 24 hrs followed by TBHP stimulation measured after 4 hrs by MTT assay relative to control; format: functional
[3] = Cytotoxicity against human SH-SY5Y cells assessed as cell metabolic activity at 10 uM incubated for 24 hrs by MTT assay relative to control; format: ADME, cell-based; conditions: read-out: Activity
[4] = Antioxidant activity assessed as ABTS radical scavenging activity measured after 15 mins by UV-Visible spectrophotometric based assay; format: functional
[5] = Antioxidant activity assessed as DPPH radical scavenging activity measured after 45 mins by UV-Visible spectrophotometric based assay; format: functional
[6] = Electrochemical behavior of the compound assessed as redox potential corrected toward saturated Ag/AgCl reference electrode by differential pulse voltammetry
[7] = Cytotoxicity against human SH-SY5Y cells assessed as cell metabolic activity at 50 uM incubated for 24 hrs by MTT assay relative to control; format: ADME, cell-based; conditions: read-out: Activity
[8] = Cytotoxicity against human HepG2 cells assessed as cell metabolic activity at 10 uM incubated for 48 hrs by resazurin assay relative to control; format: ADME, cell-based; conditions: read-out: Activity
[9] = Metal chelating activity assessed as compound-Fe2+ complex formation at 100 uM incubated for 10 mins by ferrozine spectrophotometric assay
[10] = tested on: SH-SY5Y; experiment: Neuroprotective activity against TBHP-induced oxidative damage in human SH-SY5Y cells assessed as increase in cell viability at 10 uM pretreated for 24 hrs followed by TBHP stimulation measured after 4 hrs by MTT assay relative to control; format: functional, cell-based
[11] = tested on: SH-SY5Y; experiment: Neuroprotective activity against 6-OHDA-induced toxicity in human SH-SY5Y cells assessed as reduction in cell damage at 10 uM pretreated for 24 hrs followed by 6-OHDA challenge and measured after 24 hrs by MTT assay relative to control; format: functional; design: scale not given: the % may be the effect or the level left
[12] = Cytotoxicity against human HepG2 cells assessed as cell metabolic activity at 50 uM incubated for 48 hrs by resazurin assay relative to control; format: ADME, cell-based; conditions: read-out: Activity
[13] = Electrochemical behavior of the compound assessed as redox potential corrected toward saturated Ag/AgCl reference electrode by cyclic voltammetry
[14] = tested on: SH-SY5Y; experiment: Cytotoxicity against human SH-SY5Y cells assessed as reduction in cell viability incubated for 24 hrs by MTT assay relative to control; format: cell-based
[15] = tested on: SH-SY5Y; experiment: Neuroprotective activity against 6-OHDA-induced toxicity in human SH-SY5Y cells assessed as reduction in cell damage at 10 to 50 uM pretreated for 24 hrs followed by 6-OHDA challenge and measured after 24 hrs by MTT assay relative to control; format: functional
[16] = tested on: HepG2; experiment: Cytotoxicity against human HepG2 cells assessed as reduction in cell viability incubated for 48 hrs by resazurin assay relative to control; format: cell-based; conditions: hepg2, 48 h
[17] = tested on: SH-SY5Y; experiment: Cytotoxicity against human SH-SY5Y cells assessed as reduction in cell viability at 10 uM incubated for 24 hrs by MTT assay relative to control; format: cell-based
[18] = tested on: SH-SY5Y; experiment: Neuroprotective activity against H2O2-induced oxidative damage in human SH-SY5Y cells assessed as reduction in cell damage at 10 uM pretreated for 24 hrs followed by H2O2 challenge measured after 30 mins by MTT assay relative to control; format: functional; design: scale not given: the % may be the effect or the level left
[19] = Cytotoxicity against human CMEC/D3 cells assessed as reduction in cell viability at 50 to 100 uM incubated for 4 hrs by MTT assay relative to control; format: cell-based; conditions: hcmec/d3, 4 h
[20] = Apparent permeability across apical to basolateral side in human CMEC/D3 cells at 100 uM incubated by UV-VIS spectroscopic method; format: ADME, cell-based; conditions: hcmec/d3, 100 µM, TDE = time-dependent effect
[21] = tested on: SH-SY5Y; experiment: Neuroprotective activity against H2O2-induced oxidative damage in human SH-SY5Y cells assessed as reduction in cell damage at 50 uM pretreated for 24 hrs followed by H2O2 challenge measured after 30 mins by MTT assay relative to control; format: functional; design: scale not given: the % may be the effect or the level left
[22] = Apparent permeability across apical to basolateral side in human CMEC/D3 cells at 100 uM incubated up to 180 mins by UV-VIS spectroscopic method; format: ADME, cell-based; conditions: hcmec/d3, 3 h

With `CS(=O)(=O)[O-].O=C(/C=C/c1cc(O)c(O)c(O)c1)NCCCCCC[P+](c1ccccc1)(c1ccccc1)c1ccccc1` as the compound, how does the Activity [1] read?
Its Activity is “Active”.

And the Activity [2]?
Its Activity is “inactive”.

And the viability at 24 h, 10 µM [3]?
Its viability at 24 h, 10 µM is 104%.

What about the IC50 [4] of the same compound?
Its IC50 is 12.2 µM.

And the IC50 [5]?
Its IC50 is 19 µM.

What about the Activity [6] of the same compound?
The Activity was 709 mV.

What about the viability at 24 h, 50 µM [7] of the same compound?
The viability at 24 h, 50 µM was 94%.

What about the viability at 48 h, 10 µM [8] of the same compound?
Its viability at 48 h, 10 µM is 105%.

And the Activity [9]?
The Activity was over 80%.

What about the Activity [10] of the same compound?
Its Activity is “inactive”.

And the Activity [11]?
Its Activity is 19.8%.

What about the viability at 48 h, 50 µM [12] of the same compound?
The viability at 48 h, 50 µM was 94.7%.

What about the Activity [13] of the same compound?
The Activity was 34 mV.

Which Activity [1] does the source give for `CS(=O)(=O)[O-].O=C(/C=C/c1ccc(O)c(O)c1)NCCCCCCCCCC[P+](c1ccccc1)(c1ccccc1)c1ccccc1` here?
Its Activity is 132.5%.

And the Activity [14]?
Its Activity is “Dose-dependent effect”.

What about the Activity [2] of the same compound?
The Activity was “inactive”.

What about the viability at 24 h, 10 µM [3] of the same compound?
Its viability at 24 h, 10 µM is 104%.

And the IC50 [4]?
The IC50 was 23.5 µM.

And the IC50 [5]?
Its IC50 is 25.9 µM.

What about the Activity [15] of the same compound?
Its Activity is “inactive”.

What about the Activity [6] of the same compound?
The Activity was 174 mV.

What about the viability at 24 h, 50 µM [7] of the same compound?
The viability at 24 h, 50 µM was 15.9%.

And the viability at 48 h, 10 µM [8]?
Its viability at 48 h, 10 µM is 9.19%.

What about the Activity [16] of the same compound?
Its Activity is “Dose-dependent effect”.

What about the Activity [9] of the same compound?
The Activity was over 80%.

And the Activity [10]?
Its Activity is “inactive”.

And the Activity [17]?
Its Activity is under 45%.

And the viability at 48 h, 50 µM [12]?
The viability at 48 h, 50 µM was 8.24%.

What about the Activity [13] of the same compound?
Its Activity is 174 mV.

Which Activity [1] does the source give for `CS(=O)(=O)[O-].O=C(Cc1ccc(O)c(O)c1)NCCCCCCCCCC[P+](c1ccccc1)(c1ccccc1)c1ccccc1` here?
Its Activity is 103.4%.

And the Activity [14]?
The Activity was “Dose-dependent effect”.

And the Activity [2]?
Its Activity is “inactive”.

What about the viability at 24 h, 10 µM [3] of the same compound?
The viability at 24 h, 10 µM was 94.5%.

What about the IC50 [4] of the same compound?
The IC50 was 28.1 µM.

And the IC50 [5]?
Its IC50 is 56.4 µM.

And the Activity [6]?
The Activity was 122 mV.

And the viability at 24 h, 50 µM [7]?
Its viability at 24 h, 50 µM is 85.7%.

What about the viability at 48 h, 10 µM [8] of the same compound?
Its viability at 48 h, 10 µM is 85.2%.

What about the Activity [16] of the same compound?
Its Activity is “Dose-dependent effect”.

What about the Activity [9] of the same compound?
Its Activity is over 80%.

And the Activity [10]?
The Activity was “inactive”.

And the viability at 48 h, 50 µM [12]?
The viability at 48 h, 50 µM was 10.7%.

What about the Activity [13] of the same compound?
The Activity was 122 mV.

With `CS(=O)(=O)[O-].O=C(Cc1cc(O)c(O)c(O)c1)NCCCCCCCCCC[P+](c1ccccc1)(c1ccccc1)c1ccccc1` as the compound, how does the Activity [1] read?
Its Activity is “Active”.

And the Activity [18]?
Its Activity is 70.8 - 83.3%.

And the Activity [2]?
The Activity was “inactive”.

And the Activity [19]?
The Activity was “Non-Toxic”.

What about the viability at 24 h, 10 µM [3] of the same compound?
Its viability at 24 h, 10 µM is 95.2%.

And the permeability [20]?
The permeability was “Tde”.

And the IC50 [4]?
The IC50 was 7.6 µM.

What about the IC50 [5] of the same compound?
The IC50 was 20.7 µM.

And the Activity [15]?
Its Activity is 66.5 - 70.2%.

And the Activity [6]?
Its Activity is 594 mV.

What about the viability at 24 h, 50 µM [7] of the same compound?
The viability at 24 h, 50 µM was 95.3%.

And the viability at 48 h, 10 µM [8]?
The viability at 48 h, 10 µM was 102%.

What about the Activity [21] of the same compound?
Its Activity is 70.8 - 83.3%.

And the Activity [9]?
The Activity was over 80%.

What about the permeability [22] of the same compound?
Its permeability is 27.7%.

What about the Activity [10] of the same compound?
Its Activity is “inactive”.

What about the viability at 48 h, 50 µM [12] of the same compound?
Its viability at 48 h, 50 µM is 93.6%.

What about the Activity [13] of the same compound?
The Activity was 11 mV.

Which Activity [1] does the source give for `CS(=O)(=O)[O-].O=C(CCc1cc(O)c(O)c(O)c1)NCCCCCCCCCC[P+](c1ccccc1)(c1ccccc1)c1ccccc1` here?
Its Activity is “Active”.

And the Activity [18]?
Its Activity is 70.8 - 83.3%.

And the Activity [2]?
The Activity was “inactive”.

What about the Activity [19] of the same compound?
The Activity was “Non-Toxic”.

What about the viability at 24 h, 10 µM [3] of the same compound?
Its viability at 24 h, 10 µM is 92.8%.

And the permeability [20]?
Its permeability is “Tde”.

And the IC50 [4]?
Its IC50 is 11.9 µM.

And the IC50 [5]?
The IC50 was 23.2 µM.

And the Activity [15]?
Its Activity is 66.5 - 70.2%.

What about the Activity [6] of the same compound?
The Activity was 537 mV.

What about the viability at 24 h, 50 µM [7] of the same compound?
Its viability at 24 h, 50 µM is 96.3%.

What about the viability at 48 h, 10 µM [8] of the same compound?
The viability at 48 h, 10 µM was 106%.

And the Activity [21]?
The Activity was 70.8 - 83.3%.

And the Activity [9]?
The Activity was over 80%.

What about the permeability [22] of the same compound?
The permeability was 33.1%.

And the Activity [10]?
Its Activity is “inactive”.

And the viability at 48 h, 50 µM [12]?
Its viability at 48 h, 50 µM is 108%.

What about the Activity [13] of the same compound?
The Activity was 12 mV.

With `CS(=O)(=O)[O-].O=C(CCc1cc(O)c(O)c(O)c1)NCCCCCC[P+](c1ccccc1)(c1ccccc1)c1ccccc1` as the compound, how does the Activity [1] read?
Its Activity is “Active”.

What about the Activity [2] of the same compound?
Its Activity is “inactive”.

What about the Activity [19] of the same compound?
The Activity was “Non-Toxic”.

What about the viability at 24 h, 10 µM [3] of the same compound?
Its viability at 24 h, 10 µM is 95.9%.

What about the permeability [20] of the same compound?
Its permeability is “Tde”.

And the IC50 [4]?
Its IC50 is 10.9 µM.

And the IC50 [5]?
The IC50 was 20.2 µM.

And the Activity [15]?
Its Activity is “Active”.

And the Activity [6]?
Its Activity is 547 mV.

And the viability at 24 h, 50 µM [7]?
Its viability at 24 h, 50 µM is 91.7%.

And the viability at 48 h, 10 µM [8]?
Its viability at 48 h, 10 µM is 113%.

And the Activity [9]?
Its Activity is over 80%.

And the permeability [22]?
The permeability was 23.7%.

And the Activity [10]?
Its Activity is “inactive”.

And the viability at 48 h, 50 µM [12]?
Its viability at 48 h, 50 µM is 117%.

What about the Activity [13] of the same compound?
The Activity was 11 mV.
